Source: PubChem BioAssay (NCI)
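Step 1: Grow cells in 96-well plates. Step 2: Expose to compound for 48 hours at 5 concentrations. Step 3: Interpolate endpoints linearly; if unreached, use highest concentration. GI50: concentration for 50% inhibition of growth. Definition used: TGI = concentration required for complete inhibition of growth.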

Columns and labels:
Test in all cases: NCI-60 cell line screen, 48 h
[1] = system: RXF 393 renal
[2] = system: OVCAR-4 ovarian
[3] = system: SK-OV-3 ovarian
[4] = system: A549 NSCLC
[5] = system: EKVX NSCLC
[6] = system: SK-MEL-2 melanoma
[7] = system: RPMI-8226 leukemia
[8] = system: HOP-62 NSCLC
[9] = system: CCRF-CEM leukemia
[10] = system: MOLT-4 leukemia

SMILES	TGI [1] [µM]	TGI [2] [µM]	TGI [3] [µM]	TGI [4] [µM]	TGI [5] [µM]	TGI [6] [µM]	TGI [7] [µM]	TGI [8] [µM]	TGI [9] [µM]	TGI [10] [µM]	GI50 [3] [µM]	GI50 [5] [µM]	GI50 [6] [µM]	GI50 [8] [µM]	GI50 [9] [µM]	GI50 [10] [µM]
CC(C)C(C(=O)O)N1C(=O)c2ccccc2C1=O (centres undefined)	> 100	> 100	> 100	> 100	> 100	0.612	> 100	> 100	> 100	> 100						
COC(=O)c1ccc2c(c1)S/C(=C/c1ccc3ccc4cccc5ccc1c3c45)S2	> 100	> 100	> 100	> 100	> 100	> 100	> 100	> 100	> 100	> 100						
O[C@@]12Cc3c([nH]c4ccccc34)[C@@H]3Oc4cccc5c4[C@@]31CCN(CC1CC1)[C@@H]2C5		41.3		43.5	47.6	41.5	41.2	46.6	29.9	52.7						
COC(=O)C1=C(OC(=O)/C(=C/c2ccc(Cl)cc2)c2ccc(Cl)cc2)C(C(=O)OC)[C@]2(O)[C@@H](C(=O)OC)[C@H]1C[C@@H](c1ccccc1)[C@@H]2C(=O)OC (some centres undefined)	> 100	> 100	> 100	> 100	> 100	> 100		> 100		> 100						
CCCC1CCC(=C2C(=O)CCC2=O)O1 (centres undefined)	> 100	> 100	> 100	> 100	> 100	> 100	> 100	> 100	> 100	> 100						
Cn1c(-c2ccccc2)cc(-c2cccs2)c1-c1cccs1	> 100	> 100	> 100	> 100	> 100	> 100	> 100	> 100	> 100	> 100						
Nc1nc(Nc2ccccc2)c2[nH]cnc2n1	> 100	> 100	> 100	> 100	> 100	> 100	> 100	> 100	> 100	> 100						
OCCN(CCO)c1ncnc2nc[nH]c12	> 100	> 100	> 100	> 100	> 100		> 100	> 100	> 100	> 100						
CC1=NN(c2nc(N)nc(/C(C#N)=C\c3csc([N+](=O)[O-])c3)n2)C(C)(C)C1	44.7	56.4	> 100		90.1	81	> 100	64.6	> 100	> 100						
O=c1c2cc(S(=O)(=O)O)ccc2nc(COc2ccc(Oc3ccc(Cl)cc3Cl)cc2)n1-c1ccc(Oc2ccc(Cl)cc2)cc1Cl	17.9	73.6	49.2	40.6	44.5	32.2	65.4	46	> 100	94.9						
CC1=C(O)C2=C(C(=O)C1=O)[C@@H](C)CC[C@@H]2[C@@H](C)C/C=C/C(C)(C)O			> 100	> 100		> 100	56.3	> 100	> 100	93.2						
CC12C=CC(=O)C=C1CCC1C3CCC(O)(C(=O)CO)C3(C)CC(O)C12F (centres undefined)	> 100	> 100	> 100	> 100	> 100	> 100	> 100	> 100	> 100	> 100						
Nc1nc(O)c2ncn([C@H]3CC[C@@H](CO)O3)c2n1	> 100	> 100	> 100			> 100	> 100	> 100	> 100	> 100						
COc1ccc(Oc2cccc(C3C4C(=O)N(c5ccc(C)c(Cl)c5)C(=O)C4ON3C(C(N)=O)c3ccccc3)c2)cc1 (centres undefined)	30.1	> 50	> 50	> 50	26.6	38.3		> 50	> 50	43.4						
C/C(=N/N=C(\[O-])c1ccncc1)C(F)(F)F.C/C(=N\N=C(/[O-])c1ccncc1)C(F)(F)F.[Ni+2]			0.005		> 1			> 1	> 1	> 1	0.00156	> 1	> 1	> 1	> 1	> 1
